Measured values: the supplement of paper PMC10307832

Experiments:
Test in all cases: relative viability (nuclei count vs DMSO), 5 days (fraction); higher = more cells survive
PC-14 = system: PC-14
Procedure, shortened: (§1)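 Relative viability equals treated-well nuclei counts divided by vehicle-well nuclei counts. Counts came from 4× images of lung cancer cell lines grown in 1536-well plates for 5 days after pin-tool dosing on the day after seeding. Dosing used one drug alone or a fixed anchor-drug dose plus five library-drug doses (not always all listed) in √10 steps, and values are medians of duplicate plates.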

NCI-H2342 = system: NCI-H2342
Procedure, shortened: as §1

NCI-H1395 = system: NCI-H1395
Procedure, shortened: as §1

HCC-15 = system: HCC-15
Procedure, shortened: as §1

NCI-H2170 = system: NCI-H2170
Procedure, shortened: as §1

NCI-H1355 = system: NCI-H1355
Procedure, shortened: as §1

NCI-H1734 = system: NCI-H1734
Procedure, shortened: as §1

NCI-H2228 = system: NCI-H2228
Procedure, shortened: as §1

HOP-62 = system: HOP-62
Procedure, shortened: as §1

UMC-11 = system: UMC-11
Procedure, shortened: as §1

COR-L 105 = system: COR-L 105
Procedure, shortened: as §1

NCI-H1793 = system: NCI-H1793
Procedure, shortened: as §1

SK-MES-1 = system: SK-MES-1
Procedure, shortened: as §1

NCI-H1993 = system: NCI-H1993
Procedure, shortened: as §1

NCI-H1755 = system: NCI-H1755
Procedure, shortened: as §1

COR-L23 = system: COR-L23
Procedure, shortened: as §1

NCI-H2347 = system: NCI-H2347
Procedure, shortened: as §1

NCI-H358 = system: NCI-H358
Procedure, shortened: as §1

HARA = system: HARA
Procedure, shortened: as §1

NCI-H2009 = system: NCI-H2009
Procedure, shortened: as §1

NCI-H647 = system: NCI-H647
Procedure, shortened: as §1

NCI-H838 = system: NCI-H838
Procedure, shortened: as §1

EKVX = system: EKVX
Procedure, shortened: as §1

SMILES: CC1(C)CCC(c2ccc(Cl)cc2)=C(CN2CCN(c3ccc(C(=O)NS(=O)(=O)c4ccc(N[C@H](CCN5CCOCC5)CSc5ccccc5)c(S(=O)(=O)C(F)(F)F)c4)cc3)CC2)C1 [Navitoclax] + CC(=O)Nc1cccc(-n2c(=O)n(C3CC3)c(=O)c3c(Nc4ccc(I)cc4F)n(C)c(=O)c(C)c32)c1 [Trametinib] (partner 0.02 µM)
- relative viability (PC-14; first compound 0.005 µM): 0.804
- relative viability (PC-14; first compound 0.01581 µM): 1.21
- relative viability (PC-14; first compound 0.05 µM): 0.808
- relative viability (PC-14; first compound 0.1581 µM): 0.801
- relative viability (PC-14; first compound 0.5 µM): 0.695
- relative viability (NCI-H2342; first compound 0.005 µM): 0.8
- relative viability (NCI-H2342; first compound 0.01581 µM): 0.957
- relative viability (NCI-H2342; first compound 0.05 µM): 0.819
- relative viability (NCI-H2342; first compound 0.1581 µM): 0.653
- relative viability (NCI-H2342; first compound 0.5 µM): 0.967
- relative viability (NCI-H1395; first compound 0.005 µM): 1.03
- relative viability (NCI-H1395; first compound 0.01581 µM): 1.17
- relative viability (NCI-H1395; first compound 0.05 µM): 1.01
- relative viability (NCI-H1395; first compound 0.1581 µM): 1.13
- relative viability (NCI-H1395; first compound 0.5 µM): 1.04
- relative viability (HCC-15; first compound 0.005 µM): 0.329
- relative viability (HCC-15; first compound 0.01581 µM): 0.432
- relative viability (HCC-15; first compound 0.05 µM): 0.332
- relative viability (HCC-15; first compound 0.1581 µM): 0.401
- relative viability (HCC-15; first compound 0.5 µM): 0.35
- relative viability (NCI-H2170; first compound 0.005 µM): 0.926
- relative viability (NCI-H2170; first compound 0.01581 µM): 0.984
- relative viability (NCI-H2170; first compound 0.05 µM): 0.892
- relative viability (NCI-H2170; first compound 0.1581 µM): 0.887
- relative viability (NCI-H2170; first compound 0.5 µM): 0.874
- relative viability (NCI-H1355; first compound 0.005 µM): 0.446
- relative viability (NCI-H1355; first compound 0.01581 µM): 0.468
- relative viability (NCI-H1355; first compound 0.05 µM): 0.408
- relative viability (NCI-H1355; first compound 0.1581 µM): 0.431
- relative viability (NCI-H1355; first compound 0.5 µM): 0.458
- relative viability (NCI-H1734; first compound 0.005 µM): 0.644
- relative viability (NCI-H1734; first compound 0.01581 µM): 0.776
- relative viability (NCI-H1734; first compound 0.1581 µM): 0.625
- relative viability (NCI-H1734; first compound 0.5 µM): 0.646
- relative viability (NCI-H2228; first compound 0.005 µM): 0.476
- relative viability (NCI-H2228; first compound 0.01581 µM): 0.802
- relative viability (NCI-H2228; first compound 0.1581 µM): 0.511
- relative viability (NCI-H2228; first compound 0.5 µM): 0.491
- relative viability (HOP-62; first compound 0.005 µM): 0.377
- relative viability (HOP-62; first compound 0.01581 µM): 0.404
- relative viability (HOP-62; first compound 0.05 µM): 0.362
- relative viability (HOP-62; first compound 0.1581 µM): 0.365
- relative viability (HOP-62; first compound 0.5 µM): 0.39
- relative viability (UMC-11; first compound 0.005 µM): 0.658
- relative viability (UMC-11; first compound 0.01581 µM): 0.703
- relative viability (UMC-11; first compound 0.05 µM): 0.483
- relative viability (UMC-11; first compound 0.1581 µM): 0.574
- relative viability (UMC-11; first compound 0.5 µM): 0.321
- relative viability (COR-L 105; first compound 0.005 µM): 0.441
- relative viability (COR-L 105; first compound 0.01581 µM): 0.476
- relative viability (COR-L 105; first compound 0.05 µM): 0.428
- relative viability (COR-L 105; first compound 0.1581 µM): 0.447
- relative viability (COR-L 105; first compound 0.5 µM): 0.379
- relative viability (NCI-H1793; first compound 0.005 µM): 0.373
- relative viability (NCI-H1793; first compound 0.01581 µM): 0.439
- relative viability (NCI-H1793; first compound 0.1581 µM): 0.467
- relative viability (NCI-H1793; first compound 0.5 µM): 0.402
- relative viability (SK-MES-1; first compound 0.005 µM): 0.516
- relative viability (SK-MES-1; first compound 0.01581 µM): 0.681
- relative viability (SK-MES-1; first compound 0.05 µM): 0.547
- relative viability (SK-MES-1; first compound 0.1581 µM): 0.591
- relative viability (SK-MES-1; first compound 0.5 µM): 0.654
- relative viability (NCI-H1993; first compound 0.005 µM): 0.521
- relative viability (NCI-H1993; first compound 0.01581 µM): 0.513
- relative viability (NCI-H1993; first compound 0.05 µM): 0.508
- relative viability (NCI-H1993; first compound 0.1581 µM): 0.454
- relative viability (NCI-H1993; first compound 0.5 µM): 0.642
- relative viability (NCI-H1755; first compound 0.005 µM): 0.743
- relative viability (NCI-H1755; first compound 0.01581 µM): 0.774
- relative viability (NCI-H1755; first compound 0.05 µM): 0.662
- relative viability (NCI-H1755; first compound 0.1581 µM): 0.764
- relative viability (NCI-H1755; first compound 0.5 µM): 0.802
- relative viability (COR-L23; first compound 0.005 µM): 0.6
- relative viability (COR-L23; first compound 0.01581 µM): 0.601
- relative viability (COR-L23; first compound 0.05 µM): 0.514
- relative viability (COR-L23; first compound 0.1581 µM): 0.577
- relative viability (COR-L23; first compound 0.5 µM): 0.61
- relative viability (NCI-H2347; first compound 0.005 µM): 0.296
- relative viability (NCI-H2347; first compound 0.01581 µM): 0.314
- relative viability (NCI-H2347; first compound 0.05 µM): 0.26
- relative viability (NCI-H2347; first compound 0.1581 µM): 0.32
- relative viability (NCI-H2347; first compound 0.5 µM): 0.259
- relative viability (NCI-H358; first compound 0.005 µM): 0.131
- relative viability (NCI-H358; first compound 0.01581 µM): 0.148
- relative viability (NCI-H358; first compound 0.05 µM): 0.114
- relative viability (NCI-H358; first compound 0.1581 µM): 0.133
- relative viability (NCI-H358; first compound 0.5 µM): 0.146
- relative viability (HARA; first compound 0.005 µM): 0.44
- relative viability (HARA; first compound 0.01581 µM): 0.638
- relative viability (HARA; first compound 0.05 µM): 0.917
- relative viability (HARA; first compound 0.1581 µM): 0.587
- relative viability (HARA; first compound 0.5 µM): 1.06
- relative viability (NCI-H2009; first compound 0.005 µM): 0.324
- relative viability (NCI-H2009; first compound 0.01581 µM): 0.355
- relative viability (NCI-H2009; first compound 0.05 µM): 0.322
- relative viability (NCI-H2009; first compound 0.1581 µM): 0.303
- relative viability (NCI-H2009; first compound 0.5 µM): 0.308
- relative viability (NCI-H647; first compound 0.005 µM): 0.345
- relative viability (NCI-H647; first compound 0.01581 µM): 0.521
- relative viability (NCI-H647; first compound 0.05 µM): 0.331
- relative viability (NCI-H647; first compound 0.1581 µM): 0.534
- relative viability (NCI-H647; first compound 0.5 µM): 0.408
- relative viability (NCI-H838; first compound 0.005 µM): 0.422
- relative viability (NCI-H838; first compound 0.01581 µM): 0.639
- relative viability (NCI-H838; first compound 0.05 µM): 0.51
- relative viability (NCI-H838; first compound 0.1581 µM): 0.559
- relative viability (NCI-H838; first compound 0.5 µM): 0.555
- relative viability (EKVX; first compound 0.005 µM): 0.292
- relative viability (EKVX; first compound 0.01581 µM): 0.457
- relative viability (EKVX; first compound 0.05 µM): 0.334
- relative viability (EKVX; first compound 0.1581 µM): 0.376
- relative viability (EKVX; first compound 0.5 µM): 0.333
